Test results reported in patent US12599134B2, “Herbicidal compositions comprising acetochlor” (BASF SE, priority 2024, dated 2026).

Columns and labels:
emerged weeds [1] = test: Post-emergence application in greenhouse trials (scale 0 to 100; expected value by Colby); assay type: in vivo
Procedure: (§1) In the examples below, using the method of S. R. Colby (1967) “Calculating synergistic and antagonistic responses of herbicide combinations”, Weeds 15, p. 22ff., the value E, which is expected if the activity of the individual active compounds is only additive, was calculated:
(§2) [formula] • where • X=percent activity using active herbicide A at an application rate a; • Y=percent activity using active herbicide B (e.g. acetochlor) at an application rate b; • E=expected activity (in %) by A+B at application rates a+b.
(§3) If the value found experimentally is higher than the value E calculated according to Colby, a synergistic effect is present.
The culture containers used were plastic pots containing loamy sand with approximately 3.0% of humus as substrate. The seeds of the test plants were sown separately for each species.
[…] To this end, the test plants were either sown directly, and grown in the same containers, or they were first grown separately as seedlings and transplanted into the test containers a few days prior to treatment.
Depending on the species, the plants were kept at 10-25° C. and 20-35° C., respectively. The test period extended over 2 to 4 weeks. During this time, the plants were tended and their response to the individual treatments was evaluated.
(§4) Evaluation was carried out using a scale from 0 to 100. 100 means no emergence of the plants, or complete destruction of at least the above-ground parts, and 0 means no damage or normal course of growth. A good herbicidal activity is given at values of at least 70, and very good herbicidal activity is given at values of at least 85.
Herbicide A-1 and acetochlor were, together with addition of 0.5% MSO (methylated sed oil) as adjuvant, formulated in water as distribution medium (water volume 200 l/ha) and sprayed with commercial flat fan nozzles.
Herbicide A-1, acetochlor and mesotrione were, together with addition of 0.5 v/v % MSO (methylated sed oil) as adjuvant, formulated in water as distribution medium (water volume 200 l/ha) and sprayed with commercial flat fan nozzles.
Herbicide A-1, acetochlor and topramezone were, together with addition of 0.5 v/v % MSO (methylated sed oil) as adjuvant, formulated in water as distribution medium (water volume 200 l/ha) and sprayed with commercial flat fan nozzles.

emerged weeds [2] = test: Post-emergence application in field trials (expected value by Colby); assay type: in vivo
Procedure: as §1, §2, §3, §4
Herbicide A-1 and acetochlor were, together with addition of 0.25% MSO (methylated sed oil) as adjuvant, formulated in water as distribution medium (water volume 200 l/ha) and sprayed with commercial flat fan nozzles.

[3] = ABUTH, growth stage 15, 7 DAT, g ai/ha: A-1 0.5, B 200, C-24 50
[4] = ABUTH, growth stage 15, 7 DAT, g ai/ha: A-1 0.5, B 200, C-25 3.125
[5] = ABUTH, growth stage 15, 21 DAT, g ai/ha: A-1 0.25, B 200, C-24 50
[6] = AVEFA, growth stage 11, 7 DAT, g ai/ha: A-1 2, B 200, C-25 3.125
[7] = AVEFA, growth stage 11, 21 DAT, g ai/ha: A-1 2, B 200, C-24 50
[8] = AVEFA, growth stage 11, 21 DAT, g ai/ha: A-1 2, B 200, C-25 3.125
[9] = AVEFA, growth stage 12, 7 DAT, g ai/ha: A-1 2, B 400
[10] = AVEFA, growth stage 12, 19 DAT, g ai/ha: A-1 2, B 400
[11] = BRADC, growth stage 11, 21 DAT, g ai/ha: A-1 2, B 200, C-25 3.125
[12] = COMBE, growth stage 13, 21 DAT, g ai/ha: A-1 1, B 200, C-24 50
[13] = COMBE, growth stage 13, 21 DAT, g ai/ha: A-1 1, B 200, C-25 3.125
[14] = ECHCG, growth stage 12, 21 DAT, g ai/ha: A-1 2, B 200, C-24 50
[15] = ECHCG, growth stage 12, 21 DAT, g ai/ha: A-1 2, B 200, C-25 3.125
[16] = ECHCG, growth stage 13, 7 DAT, g ai/ha: A-1 0.5, B 400
[17] = ECHCG, growth stage 13, 19 DAT, g ai/ha: A-1 0.5, B 400
[18] = ELEIN, growth stage 14, 7 DAT, g ai/ha: A-1 2, B 400
[19] = ERICA, growth stage 19, 7 DAT, g ai/ha: A-1 2, B 200, C-25 3.125
[20] = GLXMA, growth stage 18, 7 DAT, g ai/ha: A-1 1, B 200, C-25 3.125
[21] = KCHSC, growth stage 29, 21 DAT, g ai/ha: A-1 1, B 200, C-25 3.125
[22] = KCHSC, growth stage 29, 21 DAT, g ai/ha: A-1 2, B 200, C-25 3.125
[23] = LOLMU, growth stage 11, 7 DAT, g ai/ha: A-1 2, B 200, C-25 3.125
[24] = LOLMU, growth stage 11, 21 DAT, g ai/ha: A-1 2, B 200, C-25 3.125
[25] = ZEAMX, growth stage 12, 21 DAT, g ai/ha: A-1 2, B 200, C-24 50
[26] = ZEAMX, growth stage 12, 21 DAT, g ai/ha: A-1 2, B 200, C-25 3.125
[27] = AMARE, growth stage 31-49, height 10-12 cm, 7 DAT, g ai/ha: A-1 12.5, B 1050
[28] = AMARE, growth stage 31-49, height 10-12 cm, 21 DAT, g ai/ha: A-1 12.5, B 1050
[29] = DIGSA, growth stage 22, height 10-15 cm, 7 DAT, g ai/ha: A-1 12.5, B 1050
[30] = DIGSA, growth stage 22, height 10-15 cm, 21 DAT, g ai/ha: A-1 12.5, B 1050
[31] = DIGSA, growth stage 22, height 10-15 cm, 42 DAT, g ai/ha: A-1 12.5, B 1050
[32] = ECHCG, growth stage 22-23, height 19-30 cm, 7 DAT, g ai/ha: A-1 12.5, B 1050
[33] = ECHCG, growth stage 22-23, height 19-30 cm, 7 DAT, g ai/ha: A-1 18, B 1050
[34] = ECHCG, growth stage 22-23, height 19-30 cm, 21 DAT, g ai/ha: A-1 12.5, B 1050
[35] = ECHCG, growth stage 22-23, height 19-30 cm, 21 DAT, g ai/ha: A-1 18, B 1050
[36] = ECHCG, growth stage 22-23, height 19-30 cm, 42 DAT, g ai/ha: A-1 12.5, B 1050
[37] = ECHCG, growth stage 22-23, height 19-30 cm, 42 DAT, g ai/ha: A-1 18, B 1050
[38] = GLXMA, growth stage 12-13, height 7-11 cm, 42 DAT, g ai/ha: A-1 18, B 1050
[39] = HORVW, growth stage 23-29, height 20-25 cm, 21 DAT, g ai/ha: A-1 12.5, B 1050
[40] = HORVW, growth stage 23-29, height 20-25 cm, 21 DAT, g ai/ha: A-1 18, B 1050
[41] = HORVW, growth stage 23-29, height 20-25 cm, 28 DAT, g ai/ha: A-1 12.5, B 1050
[42] = HORVW, growth stage 23-29, height 20-25 cm, 28 DAT, g ai/ha: A-1 18, B 1050
[43] = ZEAMX, growth stage 15-16, height 50-60 cm, 7 DAT, g ai/ha: A-1 12.5, B 1050
[44] = ZEAMX, growth stage 15-16, height 50-60 cm, 21 DAT, g ai/ha: A-1 12.5, B 1050
[45] = ZEAMX, growth stage 15-16, height 50-60 cm, 28 DAT, g ai/ha: A-1 12.5, B 1050
[46] = ZEAMX, growth stage 15-16, height 50-60 cm, 28 DAT, g ai/ha: A-1 18, B 1050

CCOC(=O)COc1ccccc1Oc1nc(-n2c(=O)cc(C(F)(F)F)n(C)c2=O)c(F)cc1Cl [A-1, ethyl 2-[2-[[3-chloro-5-fluoro-6-[3-methyl-2,6-dioxo-4-(trifluoromethyl)pyrimidin-1-yl]-2-pyridyl]oxy]phenoxy]acetate]
% Herbicidal activity (emerged weeds [1]; [3]): 85%
% Herbicidal activity (emerged weeds [1]; [4]): 85%
% Herbicidal activity (emerged weeds [1]; [5]): 60%
% Herbicidal activity (emerged weeds [1]; [6]): 55%
% Herbicidal activity (emerged weeds [1]; [7]): 30%
% Herbicidal activity (emerged weeds [1]; [8]): 30%
% Herbicidal activity (emerged weeds [1]; [9]): 75%
% Herbicidal activity (emerged weeds [1]; [10]): 75%
% Herbicidal activity (emerged weeds [1]; [11]): 30%
% Herbicidal activity (emerged weeds [1]; [12]): 80%
% Herbicidal activity (emerged weeds [1]; [13]): 80%
% Herbicidal activity (emerged weeds [1]; [14]): 30%
% Herbicidal activity (emerged weeds [1]; [15]): 30%
% Herbicidal activity (emerged weeds [1]; [16]): 40%
% Herbicidal activity (emerged weeds [1]; [17]): 15%
% Herbicidal activity (emerged weeds [1]; [18]): 75%
% Herbicidal activity (emerged weeds [1]; [19]): 80%
% Herbicidal activity (emerged weeds [1]; [20]): 90%
% Herbicidal activity (emerged weeds [1]; [21]): 60%
% Herbicidal activity (emerged weeds [1]; [22]): 75%
% Herbicidal activity (emerged weeds [1]; [23]): 10%
% Herbicidal activity (emerged weeds [1]; [24]): 10%
% Herbicidal activity (emerged weeds [1]; [25]): 40%
% Herbicidal activity (emerged weeds [1]; [26]): 40%
% Herbicidal activity (emerged weeds [2]; [27]): 95%
% Herbicidal activity (emerged weeds [2]; [28]): 80%
% Herbicidal activity (emerged weeds [2]; [29]): 75%
% Herbicidal activity (emerged weeds [2]; [30]): 70%
% Herbicidal activity (emerged weeds [2]; [31]): 70%
% Herbicidal activity (emerged weeds [2]; [32]): 55%
% Herbicidal activity (emerged weeds [2]; [33]): 55%
% Herbicidal activity (emerged weeds [2]; [34]): 50%
% Herbicidal activity (emerged weeds [2]; [35]): 55%
% Herbicidal activity (emerged weeds [2]; [36]): 45%
% Herbicidal activity (emerged weeds [2]; [37]): 50%
% Herbicidal activity (emerged weeds [2]; [38]): 85%
% Herbicidal activity (emerged weeds [2]; [39]): 70%
% Herbicidal activity (emerged weeds [2]; [40]): 80%
% Herbicidal activity (emerged weeds [2]; [41]): 95%
% Herbicidal activity (emerged weeds [2]; [42]): 95%
% Herbicidal activity (emerged weeds [2]; [43]): 80%
% Herbicidal activity (emerged weeds [2]; [44]): 70%
% Herbicidal activity (emerged weeds [2]; [45]): 40%
% Herbicidal activity (emerged weeds [2]; [46]): 70%

CCOCN(C(=O)CCl)c1c(C)cccc1CC [B, acetochlor]
% Herbicidal activity (emerged weeds [1]; [3]): 0%
% Herbicidal activity (emerged weeds [1]; [4]): 0%
% Herbicidal activity (emerged weeds [1]; [5]): 0%
% Herbicidal activity (emerged weeds [1]; [6]): 0%
% Herbicidal activity (emerged weeds [1]; [7]): 0%
% Herbicidal activity (emerged weeds [1]; [8]): 0%
% Herbicidal activity (emerged weeds [1]; [9]): 0%
% Herbicidal activity (emerged weeds [1]; [10]): 0%
% Herbicidal activity (emerged weeds [1]; [11]): 5%
% Herbicidal activity (emerged weeds [1]; [12]): 5%
% Herbicidal activity (emerged weeds [1]; [13]): 5%
% Herbicidal activity (emerged weeds [1]; [14]): 5%
% Herbicidal activity (emerged weeds [1]; [15]): 5%
% Herbicidal activity (emerged weeds [1]; [16]): 10%
% Herbicidal activity (emerged weeds [1]; [17]): 60%
% Herbicidal activity (emerged weeds [1]; [18]): 0%
% Herbicidal activity (emerged weeds [1]; [19]): 15%
% Herbicidal activity (emerged weeds [1]; [20]): 0%
% Herbicidal activity (emerged weeds [1]; [21]): 0%
% Herbicidal activity (emerged weeds [1]; [22]): 0%
% Herbicidal activity (emerged weeds [1]; [23]): 0%
% Herbicidal activity (emerged weeds [1]; [24]): 0%
% Herbicidal activity (emerged weeds [1]; [25]): 5%
% Herbicidal activity (emerged weeds [1]; [26]): 5%
% Herbicidal activity (emerged weeds [2]; [27]): 40%
% Herbicidal activity (emerged weeds [2]; [28]): 25%
% Herbicidal activity (emerged weeds [2]; [29]): 10%
% Herbicidal activity (emerged weeds [2]; [30]): 10%
% Herbicidal activity (emerged weeds [2]; [31]): 10%
% Herbicidal activity (emerged weeds [2]; [32]): 0%
% Herbicidal activity (emerged weeds [2]; [33]): 0%
% Herbicidal activity (emerged weeds [2]; [34]): 0%
% Herbicidal activity (emerged weeds [2]; [35]): 0%
% Herbicidal activity (emerged weeds [2]; [36]): 0%
% Herbicidal activity (emerged weeds [2]; [37]): 0%
% Herbicidal activity (emerged weeds [2]; [38]): 20%
% Herbicidal activity (emerged weeds [2]; [39]): 10%
% Herbicidal activity (emerged weeds [2]; [40]): 10%
% Herbicidal activity (emerged weeds [2]; [41]): 10%
% Herbicidal activity (emerged weeds [2]; [42]): 10%
% Herbicidal activity (emerged weeds [2]; [43]): 8%
% Herbicidal activity (emerged weeds [2]; [44]): 0%
% Herbicidal activity (emerged weeds [2]; [45]): 0%
% Herbicidal activity (emerged weeds [2]; [46]): 0%
